We go through seven compounds from article PMC6007841 (Journal of medicinal chemistry, 2018).

Values joined by “and” are separate entries in the source; they are usually repeats but may differ in a detail not shown here. Equal entries are not always repeated. Bridge positions count the residues as written; N and C are the ends. Ends that are not written are not given here. Peptide text beside a SMILES is read from it.

The EC50 is the midpoint of the concentration-response curve. Read a low EC50 as a more potent agent.

Assay [1] concerns the target T1, hMC4R (Homo sapiens, UniProt P32245). Kind of assay: Competitive displacement binding, [125I]-NDP-MSH, hMC4R. The settings on record: HEK293 cells.
The target in assay [2] is T2, hMC1R (Homo sapiens, UniProt Q01726). The settings on record: human MC1R; HEK293 cells; cited from earlier work.
T2 sequence (Q01726 whole entry): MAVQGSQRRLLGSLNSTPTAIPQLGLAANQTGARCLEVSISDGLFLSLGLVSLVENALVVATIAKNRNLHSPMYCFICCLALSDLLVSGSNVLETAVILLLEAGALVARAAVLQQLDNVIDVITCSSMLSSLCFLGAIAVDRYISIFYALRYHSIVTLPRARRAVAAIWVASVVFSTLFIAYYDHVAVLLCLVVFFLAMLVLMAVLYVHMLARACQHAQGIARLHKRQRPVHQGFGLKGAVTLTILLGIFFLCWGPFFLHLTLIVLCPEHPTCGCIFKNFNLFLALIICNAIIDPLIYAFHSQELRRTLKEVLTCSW
Assay [3] has as its target T2, hMC1R. The experiment in a line: cAMP AlphaScreen agonist assay, hMC1R. The conditions noted are these: for Agonist efficacy (in words): up to 100 μM, HEK293 cells, cAMP.
In the next assay the target is hMC3R (Homo sapiens, UniProt P41968). Kind of assay: cAMP AlphaScreen agonist assay, hMC3R. The settings on record: for Agonist efficacy (in words): hMC3R, up to 100 μM, HEK293 cells, cAMP. (Alpha assays give light when donor and acceptor beads are brought close together.)
Chain of hMC3R (P41968 whole entry): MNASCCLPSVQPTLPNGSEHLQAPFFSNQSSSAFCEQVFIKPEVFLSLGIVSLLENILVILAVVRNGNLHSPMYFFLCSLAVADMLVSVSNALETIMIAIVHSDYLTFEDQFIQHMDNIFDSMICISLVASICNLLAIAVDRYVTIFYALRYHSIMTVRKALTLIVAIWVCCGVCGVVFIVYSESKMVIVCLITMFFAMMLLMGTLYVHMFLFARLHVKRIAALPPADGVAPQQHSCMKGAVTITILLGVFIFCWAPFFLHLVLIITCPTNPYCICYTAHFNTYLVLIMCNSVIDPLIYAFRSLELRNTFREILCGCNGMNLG
For assay [4], the target named is T1, hMC4R. The experiment in a line: cAMP AlphaScreen agonist assay, hMC4R. The conditions noted are these: for Agonist efficacy (in words): hMC4R, up to 100 μM, HEK293 cells, cAMP.
In another assay the target is hMC5R (Homo sapiens, UniProt P33032). Kind of assay: cAMP AlphaScreen agonist assay, hMC5R. The conditions noted are these: for Agonist efficacy (in words): hMC5R, up to 100 μM, HEK293 cells, cAMP.
Chain of hMC5R (P33032 whole entry): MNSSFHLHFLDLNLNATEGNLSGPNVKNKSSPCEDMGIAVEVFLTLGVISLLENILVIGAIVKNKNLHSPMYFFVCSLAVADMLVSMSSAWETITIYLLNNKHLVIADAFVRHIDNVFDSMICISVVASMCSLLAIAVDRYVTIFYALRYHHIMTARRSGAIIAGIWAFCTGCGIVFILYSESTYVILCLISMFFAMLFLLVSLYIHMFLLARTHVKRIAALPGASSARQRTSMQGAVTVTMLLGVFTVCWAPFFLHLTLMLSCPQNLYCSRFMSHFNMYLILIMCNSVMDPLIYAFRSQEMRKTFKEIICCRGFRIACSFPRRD
For another assay, the system named is melanocortin receptors. The experiment in a line: cAMP agonist pharmacology at the melanocortin receptors. Format: cell-based. The settings on record: cAMP based.
For assay [5], the target named is T3, mMC4R (Mus musculus, UniProt P56450). Kind of assay: Competitive displacement binding, [125I]-NDP-MSH, mMC4R. The conditions noted are these: HEK293 cells.
T3 sequence (P56450 whole entry): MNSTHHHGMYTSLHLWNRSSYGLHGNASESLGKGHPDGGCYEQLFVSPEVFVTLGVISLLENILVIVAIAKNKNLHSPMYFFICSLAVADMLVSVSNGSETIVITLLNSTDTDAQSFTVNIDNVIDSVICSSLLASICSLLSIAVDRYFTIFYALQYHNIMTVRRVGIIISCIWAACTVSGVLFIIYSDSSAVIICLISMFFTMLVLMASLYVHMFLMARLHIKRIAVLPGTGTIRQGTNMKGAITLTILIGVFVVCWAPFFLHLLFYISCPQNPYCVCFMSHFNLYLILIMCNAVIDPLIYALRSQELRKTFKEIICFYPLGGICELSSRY
Assay [6] deals with T2, hMC1R. The experiment in a line: Competitive displacement binding, [125I]-NDP-MSH, hMC1R. The conditions noted are these: HEK293 cells.
For a further assay, the system named is mice. Kind of assay: Fasting feeding paradigm after central administration in cannulated male mice. It counts as in vivo, mouse. The conditions noted are these: 100 μg at start of 22 h fast, vs saline.
In another assay the target is mMC1R (Mus musculus, UniProt Q01727). Kind of assay: cAMP AlphaScreen agonist assay, mMC1R. The conditions noted are these: for Agonist efficacy (in words): mMC1R, up to 100 μM, HEK293 cells, cAMP.
Chain of mMC1R (Q01727 whole entry): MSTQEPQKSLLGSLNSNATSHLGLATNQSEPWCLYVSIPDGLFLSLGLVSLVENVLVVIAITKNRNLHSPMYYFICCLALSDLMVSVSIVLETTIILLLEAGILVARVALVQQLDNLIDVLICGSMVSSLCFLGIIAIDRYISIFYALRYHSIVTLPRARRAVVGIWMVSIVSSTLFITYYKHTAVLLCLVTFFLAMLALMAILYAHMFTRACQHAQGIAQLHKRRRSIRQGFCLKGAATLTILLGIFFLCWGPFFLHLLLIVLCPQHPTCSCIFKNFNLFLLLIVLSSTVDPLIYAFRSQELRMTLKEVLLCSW
Another assay deals with mMC3R (Mus musculus, UniProt P33033). Kind of assay: cAMP AlphaScreen agonist assay, mMC3R. The settings on record: HEK293 cells; for Agonist efficacy (in words): up to 100 μM.
Chain of mMC3R (P33033 whole entry): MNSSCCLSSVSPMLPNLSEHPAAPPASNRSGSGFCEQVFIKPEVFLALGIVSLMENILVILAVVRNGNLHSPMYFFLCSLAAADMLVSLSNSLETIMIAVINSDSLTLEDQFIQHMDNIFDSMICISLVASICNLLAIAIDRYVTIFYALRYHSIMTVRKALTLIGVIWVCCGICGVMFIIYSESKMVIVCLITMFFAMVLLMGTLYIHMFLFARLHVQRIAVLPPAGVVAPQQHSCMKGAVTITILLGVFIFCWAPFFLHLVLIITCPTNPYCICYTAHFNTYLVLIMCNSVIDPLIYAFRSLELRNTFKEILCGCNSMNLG
For another assay, the target named is mMC5R (Mus musculus, UniProt P41149). Kind of assay: cAMP AlphaScreen agonist assay, mMC5R. The settings on record: for Agonist efficacy (in words): mMC5R, up to 100 μM, HEK293 cells, cAMP.
Chain of mMC5R (P41149 whole entry): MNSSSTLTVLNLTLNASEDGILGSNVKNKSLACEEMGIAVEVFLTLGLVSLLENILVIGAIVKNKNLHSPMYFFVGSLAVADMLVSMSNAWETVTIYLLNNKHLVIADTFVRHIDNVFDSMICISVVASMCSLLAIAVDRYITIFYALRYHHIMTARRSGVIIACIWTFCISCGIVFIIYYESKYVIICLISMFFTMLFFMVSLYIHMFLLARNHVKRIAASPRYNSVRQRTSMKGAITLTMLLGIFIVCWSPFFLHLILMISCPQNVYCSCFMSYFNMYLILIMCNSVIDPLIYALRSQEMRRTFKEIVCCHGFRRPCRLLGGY
Assay [7] has as its target T3, mMC4R. Kind of assay: cAMP AlphaScreen agonist assay, mMC4R.
Setting [8] is: HEK293, read-out: Maximal stimulatory response at 100 μM.

T1 sequence (P32245 whole entry): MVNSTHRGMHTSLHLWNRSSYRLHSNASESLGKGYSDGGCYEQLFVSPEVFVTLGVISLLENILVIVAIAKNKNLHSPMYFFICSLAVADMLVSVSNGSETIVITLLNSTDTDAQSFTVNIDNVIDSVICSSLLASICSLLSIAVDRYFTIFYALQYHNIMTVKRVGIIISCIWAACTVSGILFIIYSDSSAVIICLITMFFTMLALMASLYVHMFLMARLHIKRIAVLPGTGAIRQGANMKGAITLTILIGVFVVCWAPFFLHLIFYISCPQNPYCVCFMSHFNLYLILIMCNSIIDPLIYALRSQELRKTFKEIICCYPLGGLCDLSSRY

Regarding `CC[C@H](C)[C@@H]1NC(=O)[C@H](CCCCN)NC(=O)[C@H]([C@@H](C)O)NC(=O)[C@H](Cc2ccccc2)NC(=O)[C@H]([C@@H](C)CC)NC(=O)[C@@H]2CCCN2C(=O)[C@@H]2CSSC[C@@H](C(=O)N[C@@H](CCCCN)C(=O)O)NC(=O)[C@@H]3CSSC[C@H](NC(=O)[C@H](CC(N)=O)NC(=O)[C@H](Cc4ccc(O)cc4)NC(=O)[C@H](Cc4c[nH]cn4)NC(=O)[C@@H](N)CC(=O)O)C(=O)N[C@@H](C(C)C)C(=O)N[C@@H](CO)C(=O)N[C@@H](CO)C(=O)NCC(=O)NCC(=O)N[C@@H](CCC(N)=O)C(=O)N[C@@H](CSSC[C@H](NC(=O)[C@H]([C@@H](C)O)NC(=O)CNC(=O)[C@H](CCC(N)=O)NC1=O)C(=O)N[C@@H](Cc1ccc(O)cc1)C(=O)N[C@@H](CCCNC(=N)N)C(=O)NCC(=O)N[C@@H](CCCCN)C(=O)N[C@@H](C)C(=O)N[C@@H](CCCCN)C(=O)N3)C(=O)N[C@@H](CC(C)C)C(=O)N[C@@H](Cc1ccc(O)cc1)C(=O)N[C@@H](CO)C(=O)N[C@@H](C)C(=O)N2` [hBD1] (H-DHYNCVSSGGQCLYSACPIFTKIQGTCYRGKAKCCK-OH; disulfide 5-34, 12-27, 17-35; N-terminus and C-terminus assumed), at hMC4R [1], the “Displacement of radiolabeled NDP-MSH (in words)” value is “not sufficient displacement of the radiolabel to generate an IC50 values”. Moreover, the Binding affinity on hMC1R [2] was 30 nM and 30.0 nM. For the same compound, the “Agonist efficacy (in words)” value at hMC1R [3] (hMC1R) is given as “Full agonist efficacy”; on hMC3R, “no activity”; at hMC4R [4], “Full agonist efficacy”; at hMC5R it was “no activity”.
As for `CC[C@H](C)[C@H](NC(=O)[C@H](CCCCN)NC(=O)[C@@H](NC(=O)[C@H](Cc1ccccc1)NC(=O)[C@@H](NC(=O)[C@@H]1CCCN1C(=O)[C@H](CS)NC(=O)[C@H](C)NC(=O)[C@H](CO)NC(=O)[C@H](Cc1ccc(O)cc1)NC(=O)[C@H](CC(C)C)NC(=O)[C@H](CS)NC(=O)[C@H](CCC(N)=O)NC(=O)CNC(=O)CNC(=O)[C@H](CO)NC(=O)[C@H](CO)NC(=O)[C@@H](NC(=O)[C@H](CS)NC(=O)[C@H](CC(N)=O)NC(=O)[C@H](Cc1ccc(O)cc1)NC(=O)[C@H](Cc1c[nH]cn1)NC(=O)[C@@H](N)CC(=O)O)C(C)C)[C@@H](C)CC)[C@@H](C)O)C(=O)N[C@@H](CCC(N)=O)C(=O)NCC(=O)N[C@H](C(=O)N[C@@H](CS)C(=O)N[C@@H](Cc1ccc(O)cc1)C(=O)N[C@@H](CCCNC(=N)N)C(=O)NCC(=O)N[C@@H](CCCCN)C(=O)N[C@@H](C)C(=O)N[C@@H](CCCCN)C(=O)N[C@@H](CS)C(=O)N[C@@H](CS)C(=O)N[C@@H](CCCCN)C(=O)O)[C@@H](C)O` [hBD1red] (H-DHYNCVSSGGQCLYSACPIFTKIQGTCYRGKAKCCK-OH; N-terminus and C-terminus assumed), the “Agonist activity at the melanocortin receptors (in words)” value in the assay with melanocortin receptors is listed as “no activity at the remaining receptor subtypes”. Besides, the “Agonist efficacy (in words)” value at hMC1R [3] (hMC1R) and on hMC4R [4] was “partial agonist stimulation” throughout.
Take `CC(C)C[C@@H]1NC(=O)[C@@H]2CSSC[C@@H]3NC(=O)[C@H]([C@@H](C)O)NC(=O)CNC(=O)[C@H](CCC(N)=O)NC(=O)[C@H](CC(C)C)NC(=O)[C@H](CCCCN)NC(=O)[C@H]([C@@H](C)O)NC(=O)[C@H](CC(N)=O)NC(=O)[C@H](CO)NC(=O)[C@@H]4CCCN4C(=O)[C@H](CSSC[C@@H](C(=O)N[C@@H](CCCCN)C(=O)N[C@@H](CO)C(=O)O)NC(=O)[C@H](CSSC[C@H](NC(=O)[C@H](CCCCN)NC(=O)[C@H](Cc4ccc(O)cc4)NC(=O)[C@H](CCC(N)=O)NC(=O)[C@@H](N)CC(=O)O)C(=O)N[C@@H](CC(C)C)C(=O)N[C@@H](CCC(N)=O)C(=O)N[C@@H](Cc4c[nH]cn4)C(=O)NCC(=O)NCC(=O)N[C@@H](Cc4ccccc4)C(=O)N2)NC(=O)[C@H](CC(N)=O)NC(=O)[C@@H]2CCCN2C(=O)[C@H](CCCCN)NC(=O)[C@H](CC(=O)O)NC(=O)[C@@H]2CCCN2C(=O)[C@H](CCCCN)NC3=O)NC(=O)[C@H](CO)NC(=O)[C@H](CO)NC(=O)[C@H](CCCNC(=N)N)NC1=O` [mBD1] (H-DQYKCLQHGGFCLRSSCPSNTKLQGTCKPDKPNCCKS-OH; disulfide 5-34, 12-27, 17-35; N-terminus and C-terminus assumed): the “Displacement of radiolabeled NDP-MSH (in words)” value on mMC4R [5], at hMC1R [6] and on hMC4R [1] was “unable to displace” in each case. In addition, the “Body weight, specific time points” value with mice was “no significance was observed at specific time points”. Besides, in the assay on mice, the “Cumulative food intake, follow-up analysis at specific time points” value is reported as “follow-up analysis did not result in significance at a specific time point”. Further, the “Agonist efficacy (in words)” value on mMC1R, on mMC3R, at mMC5R, at hMC1R [3] (hMC1R), on hMC3R and at hMC4R [4] was “full agonist efficacy with micromolar potency” in each case. In addition, the “Agonist efficacy (in words)” value at hMC5R is on record as “no activity”.
For the compound `CC(C)C[C@H](NC(=O)[C@H](CS)NC(=O)[C@H](Cc1ccccc1)NC(=O)CNC(=O)CNC(=O)[C@H](Cc1c[nH]cn1)NC(=O)[C@H](CCC(N)=O)NC(=O)[C@H](CC(C)C)NC(=O)[C@H](CS)NC(=O)[C@H](CCCCN)NC(=O)[C@H](Cc1ccc(O)cc1)NC(=O)[C@H](CCC(N)=O)NC(=O)[C@@H](N)CC(=O)O)C(=O)N[C@@H](CCCNC(=N)N)C(=O)N[C@@H](CO)C(=O)N[C@@H](CO)C(=O)N[C@@H](CS)C(=O)N1CCC[C@H]1C(=O)N[C@@H](CO)C(=O)N[C@@H](CC(N)=O)C(=O)N[C@H](C(=O)N[C@@H](CCCCN)C(=O)N[C@@H](CC(C)C)C(=O)N[C@@H](CCC(N)=O)C(=O)NCC(=O)N[C@H](C(=O)N[C@@H](CS)C(=O)N[C@@H](CCCCN)C(=O)N1CCC[C@H]1C(=O)N[C@@H](CC(=O)O)C(=O)N[C@@H](CCCCN)C(=O)N1CCC[C@H]1C(=O)N[C@@H](CC(N)=O)C(=O)N[C@@H](CS)C(=O)N[C@@H](CS)C(=O)N[C@@H](CCCCN)C(=O)N[C@@H](CO)C(=O)O)[C@@H](C)O)[C@@H](C)O` [mBD1red] (H-DQYKCLQHGGFCLRSSCPSNTKLQGTCKPDKPNCCKS-OH; N-terminus and C-terminus assumed), the “Agonist efficacy (in words)” value on mMC3R is listed as “did not possess agonist activity”; on mMC4R [7] (mMC4R, up to 100 μM, HEK293 cells, cAMP) it was “did not possess agonist activity”; on hMC1R [3] (hMC1R), “full agonist”; on hMC3R it was “unable to stimulate”; at hMC5R, “unable to stimulate”. The “Lower agonist potency compared to the cyclic mBD1” value at hMC1R [3] (hMC1R, EC50 ratio mBD1red vs mBD1) stood at 3 fold.
For the compound “FLPKTLRKFFCRIRGGRCAVLNCLGKEEQIGRCSNSGRKCCRKKK (cysteines drawn unpaired) [mBD3*red]”, the Emax at 100 µM amounted to 40% on mMC1R (setting [8]); 40% at mMC4R [7] (setting [8]); 35% at mMC5R (setting [8]); 45% at hMC1R [3] (setting [8]); 50% at hMC4R [4] (setting [8]); 40% at hMC5R (setting [8]). Also, the “Maximal stimulatory response at 100 μM” value on mMC3R (100 μM, relative to maximal NDP-MSH signal) is recorded as 35% @ 100 μM. Moreover, the EC50 at hMC3R was above 100 µM.
On hMC3R, “FLPKTLRKFFCRIRGGRCAVLNCLGKEEQIGRCSNSGRKCCRKKK (disulfide 11-40, 18-33, 23-41) [mBD3*]” displayed an EC50 above 100 µM.
Turning to “GIINTLQKYYCRVRGGRCAVLSCLPKEEQIGKCSTRGRKCCRRKK (cysteines drawn unpaired) [hBD3red]”, the EC50 at mMC1R, on mMC5R and at hMC3R was above 100 µM each time. The “Agonist efficacy (in words)” value at mMC1R, at mMC5R and at hMC3R was “unable to stimulate” throughout.
